Data published in patent US11369613B2, “Salts and solid form of a BTK inhibitor” (PRINCIPIA BIOPHARMA INC., priority 2014, dated 2022).

Columns and labels:
chronic SLE = conditions: cited from earlier work
[1] = Stability of the free base on drying (thermal stability); type: physicochemical; conditions: drying under vacuum, at less than 45° C.
Excerpt: Isolation of compound (I) as described in PCT Application No. PCT/US2013058614 is less than ideal for large scale synthesis and isolation and therefore handling and formulating of the resulting compound can present challenges. In addition, when isolated as described in PCT Application No. PCT/US2013058614, the isolated compound (I) retains a higher percentage of residual solvent after drying under vacuum at ambient temperature than that allowed under the International Conference on Harmonisation of Technical Requirements for Registration of Pharmaceuticals for Human Use (“ICH”) guidelines (e.g., -ICH limit for class 2 solvents ranges between 50-3880 ppm and for class 3 solvents <5000 ppm).
However, the solids obtained by this method contained high residual solvents (3.9 wt % isopropylacetate and 1.7 wt % heptane).

BTK = biological target: T1, BTK (Canis lupus familiaris, UniProt A0A8I3P3Z9); assay: BTK occupancy in blood in the dog pemphigus foliaceus study; type: in vivo; conditions: oral 500 mg daily, blood taken 24 hours after the first dose, read-out: level of BTK occupancy
T1 construct: from tissue; host or cells: blood of the treated dog

pemphigus foliaceus = assay: Dog pemphigus foliaceus study; type: in vivo
[2] = system: ANCA-associated vasculitis; conditions: cited from earlier work
pemphigus vulgaris = conditions: cited from earlier work

T1 sequence (A0A8I3P3Z9 1-664): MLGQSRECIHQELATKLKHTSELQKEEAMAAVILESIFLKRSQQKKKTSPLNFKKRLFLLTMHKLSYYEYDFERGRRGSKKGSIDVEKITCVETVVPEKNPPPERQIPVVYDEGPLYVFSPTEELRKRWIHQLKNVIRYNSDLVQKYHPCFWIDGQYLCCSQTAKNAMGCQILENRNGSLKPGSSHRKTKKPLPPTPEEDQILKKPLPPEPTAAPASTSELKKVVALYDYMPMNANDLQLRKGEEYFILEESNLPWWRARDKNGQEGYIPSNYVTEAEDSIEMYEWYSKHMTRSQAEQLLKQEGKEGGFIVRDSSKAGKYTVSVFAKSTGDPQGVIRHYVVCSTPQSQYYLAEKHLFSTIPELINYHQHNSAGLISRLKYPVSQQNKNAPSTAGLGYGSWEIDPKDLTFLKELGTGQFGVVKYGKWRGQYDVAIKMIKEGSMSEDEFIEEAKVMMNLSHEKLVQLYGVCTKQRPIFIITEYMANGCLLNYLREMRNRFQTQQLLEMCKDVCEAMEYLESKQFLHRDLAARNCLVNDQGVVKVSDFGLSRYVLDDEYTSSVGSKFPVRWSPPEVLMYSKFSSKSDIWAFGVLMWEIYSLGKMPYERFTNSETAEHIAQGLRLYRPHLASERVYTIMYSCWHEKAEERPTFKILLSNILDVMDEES

Belimumab: an anti-Blys antibody
Effect on improvement of chronic SLE (chronic SLE): modest and delayed effect on improvement | Patients able to reduce corticosteroid use to <7.5 mg of prednisone (chronic SLE; week 40-52): ≤ 21% of patients (Benlysta US Product

CC(C)(C=C(C#N)C(=O)N1CCC[C@@H](n2nc(-c3ccc(Oc4ccccc4)cc3F)c3c(N)ncnc32)C1)N1CCN(C2COC2)CC1 [Compound (I), 2-[(3R)-3-[4-amino-3-(2-fluoro-4-phenoxy-phenyl)pyrazolo[3,4-d]pyrimidin-1-yl]piperidine-1-carbonyl]-4-methyl-4-[4-(oxetan-3-yl)piperazin-1-yl]pent-2-enenitrile]
Stability of free base (degradation products during drying) [1]: thermal instability | Stability of free base (degradation products during drying) ([1]; listed as free base form): not very stable

CC(C)(C)/C=C(\C#N)C(=O)N1CCC[C@@H](n2nc(-c3ccc(Oc4ccccc4)cc3F)c3c(N)ncnc32)C1 [(R,E)-2-(3-(4-amino-3-(2-fluoro-4-phenoxy-phenyl)-1H-pyrazolo[3,4-d]-pyrimidin-1-yl)piperidine-1-carbonyl)-4,4-dimethylpent-2-enenitrile]
receptor occupancy at 500 mg (BTK): ~70% | Time to clinical response (improved eating and ambulation) (pemphigus foliaceus; 30 kg Doberman, oral 500 mg daily, monotherapy): within three days | Manifestation of pre-clinical response compared with systemic corticosteroid therapy (pemphigus foliaceus; dog with pemphigus foliaceus, single agent): as rapid and comparable to that observed with systemic corticosteroid therapy | Corticosteroid-like adverse effects (polyuria, polydipsia, polyphagia, weight gain) (pemphigus foliaceus; dog, oral 500 mg daily): No well-known corticosteroid-like adverse effects | Skin lesions by four weeks (pemphigus foliaceus; dog, oral 500 mg daily, four weeks): completely healed | Clinical status at one week follow up visit (pemphigus foliaceus; dog, oral 500 mg daily, one week): improved general health and commencement of pemphigus lesion healing | Clinical status after two weeks of treatment (pemphigus foliaceus; dog, oral 500 mg daily, two weeks): general health of the dog was excellent and skin lesions continued to improve | Corticosteroid-like adverse effects (polyuria, polydipsia, polyphagia, weight gain) (pemphigus foliaceus; dog, oral 500 mg daily, listed as (R,E)-2-(3-(4-amino-3-(2-fluoro-4-phenoxyphenyl)-1H-pyrazolo [3,4-d]-pyrimidin-1))): none of the well-known corticosteroid-like adverse effects

Rituximab: anti-CD20 agent
Onset of effect [2]: Rituximab has delayed effect in ANCA- | Onset of effect (pemphigus vulgaris): Rituximab has delayed effect in pemphigus | Time of maximal effect (pemphigus vulgaris): vulgaris with maximal effect at 8-12 weeks
